Measurements taken from publication PMC7914897, “Cytotoxic Potential of a-Azepano- and 3-Amino-3,4-SeCo-Triterpenoids” (International Journal of Molecular Sciences, 2021).
Where two headings read alike, the source gives them in different places.

Columns and labels:
OVCAR-3 (Ovarian cancer) = test: cells; settings: Homo sapiens, OVCAR-3
HCT-15 (Colon cancer) = test: NCI-60 screen (SRB, 48 h); settings: Homo sapiens
CCRF-CEM (Leukemia) = test: NCI-60 screen (SRB, 48 h); settings: Homo sapiens
Leukemia subpanel = test: cells; settings: Homo sapiens
HT29 (Colon cancer) = test: NCI-60 screen (SRB, 48 h); settings: Homo sapiens, HT-29
Prostate cancer subpanel = test: NCI-60 screen, subpanel; settings: Homo sapiens
IGROV1 (Ovarian cancer) = test: NCI-60 screen (SRB, 48 h); settings: Homo sapiens
UO-31 (Renal cancer) = test: NCI-60 screen (SRB, 48 h); settings: Homo sapiens, UO-31
HS 578T (Breast cancer) = test: NCI-60 screen (SRB, 48 h); settings: Homo sapiens
Melanoma subpanel = test: NCI-60 screen, subpanel; settings: Homo sapiens
Breast cancer subpanel = test: NCI-60 screen, subpanel; settings: Homo sapiens
[1] = system: NCI-H23 (NSC lung cancer); test: NCI-60 screen (SRB, 48 h); settings: Homo sapiens
SK-MEL-2 (Melanoma) = test: NCI-60 screen (SRB, 48 h); settings: Homo sapiens
LOX IMVI (Melanoma) = test: NCI-60 screen (SRB, 48 h); type: cell-based; settings: Homo sapiens, read-out: GI50
Colon Cancer subpanel = test: NCI-60 screen, subpanel; settings: Homo sapiens
RPMI-8226 (Leukemia) = test: NCI-60 screen (SRB, 48 h); settings: Homo sapiens, RPMI-8226
BT-549 (Breast cancer) = test: NCI-60 screen (SRB, 48 h); type: cell-based; settings: Homo sapiens, BT-549
UACC-257 (Melanoma) = test: NCI-60 screen (SRB, 48 h); settings: Homo sapiens
[2] = system: MDA-MB-31/ATCC (Breast cancer); test: NCI-60 screen (SRB, 48 h); settings: Homo sapiens
[3] = system: A549/ATCC (NSC lung cancer); test: NCI-60 screen (SRB, 48 h); settings: Homo sapiens, A549
SN12C (Renal cancer) = test: NCI-60 screen (SRB, 48 h); settings: Homo sapiens
[4] = system: NCI-H322M (NSC lung cancer); test: NCI-60 screen (SRB, 48 h); settings: Homo sapiens
[5] = system: NCI/ADR-RES (Ovarian cancer); test: NCI-60 screen (SRB, 48 h); settings: Homo sapiens
DU-145 (Prostate cancer) = test: NCI-60 screen (SRB, 48 h); settings: Homo sapiens
[6] = system: panel of approximately 60 cancer cell lines; test: NCI-60 screen (SRB, 48 h), full panel
SK-MEL-28 (Melanoma) = test: NCI-60 screen (SRB, 48 h); settings: Homo sapiens

`C[C@H]1[C@H](C)CC[C@]2(C(=O)Nc3ccc4ncccc4c3)CC[C@]3(C)C(=CC[C@@H]4[C@@]5(C)CCCNC(C)(C)[C@@H]5CC[C@]43C)[C@H]12` [Compound 14] was tested, and the GI50 (OVCAR-3 (Ovarian cancer)) was 1810 nM, the GI50 (HCT-15 (Colon cancer); HCT-15) was 1590 nM and the IC (TGI) (HCT-15 (Colon cancer); HCT-15, 48 h, read-out: TGI) was 3150 nM. It also gave a GI50 (CCRF-CEM (Leukemia)) of 1670 nM, an IC (TGI) (Leukemia subpanel; 48 h, read-out: TGI MG_MID) of 3630 nM and a GI50 (Leukemia subpanel; read-out: GI50 MG_MID) of 1580 nM. For the same compound, the GI50 (HT29 (Colon cancer)) was 1590 nM, the IC (TGI) (Prostate cancer subpanel; 48 h, read-out: TGI MG_MID) was 3280 nM and the GI50 (Prostate cancer subpanel; read-out: GI50 MG_MID) was 1760 nM. For the same compound, the GI50 (IGROV1 (Ovarian cancer); IGROV-1) was 1700 nM, the IC (TGI) (IGROV1 (Ovarian cancer); IGROV-1, 48 h, read-out: TGI) was 3370 nM and the CC50 (IGROV1 (Ovarian cancer); IGROV-1, read-out: LC50) was 6690 nM. The GI50 (UO-31 (Renal cancer)) was 1500 nM, the GI50 (HS 578T (Breast cancer)) was 1960 nM and the IC (TGI) (Melanoma subpanel; 48 h, read-out: TGI MG_MID) was 3320 nM. The GI50 (Melanoma subpanel; read-out: GI50 MG_MID) was 1770 nM, the CC50 (Melanoma subpanel; read-out: LC50 MG_MID) was 6250 nM and the IC (TGI) (Breast cancer subpanel; 48 h, read-out: TGI MG_MID) was 3440 nM. It also gave a GI50 (Breast cancer subpanel; read-out: GI50 MG_MID) of 1760 nM, a CC50 (Breast cancer subpanel; read-out: LC50 MG_MID) of 6870 nM and a GI50 ([1]; NCI-H23) of 1760 nM. It also gave an IC (TGI) ([1]; NCI-H23, 48 h, read-out: TGI) of 3390 nM, a GI50 (SK-MEL-2 (Melanoma); SK-MEL-2) of 1840 nM and an IC (TGI) (SK-MEL-2 (Melanoma); SK-MEL-2, 48 h, read-out: TGI) of 3430 nM. It also gave a CC50 (SK-MEL-2 (Melanoma); SK-MEL-2, read-out: LC50) of 6420 nM, a GI50 (LOX IMVI (Melanoma)) of 1780 nM and an IC (TGI) (Colon Cancer subpanel; 48 h, read-out: TGI MG_MID) of 3370 nM. It also gave a GI50 (Colon Cancer subpanel; read-out: GI50 MG_MID) of 1660 nM, a CC50 (Colon Cancer subpanel; read-out: LC50 MG_MID) of 6180 nM and a GI50 (RPMI-8226 (Leukemia)) of 1600 nM. The GI50 (BT-549 (Breast cancer)) was 1840 nM, the GI50 (UACC-257 (Melanoma); UACC-257) was 1870 nM and the IC (TGI) (UACC-257 (Melanoma); UACC-257, 48 h, read-out: TGI) was 3540 nM. For the same compound, the GI50 [2] was 1800 nM, the IC (TGI) ([2]; 48 h, read-out: TGI) was 3400 nM and the GI50 [3] was 1810 nM. It also gave a GI50 (SN12C (Renal cancer)) of 1730 nM, an IC (TGI) (SN12C (Renal cancer); 48 h, read-out: TGI) of 3330 nM and a GI50 [4] of 1720 nM. For the same compound, the IC (TGI) ([4]; 48 h, read-out: TGI) was 3110 nM, the GI50 [5] was 1910 nM and the GI50 (DU-145 (Prostate cancer); DU-145) was 1760 nM. The IC (TGI) (DU-145 (Prostate cancer); DU-145, 48 h, read-out: TGI) was 3280 nM, the “Positive Cytostatic Effect (cell lines with percent growth 0 to 50 / total)” value ([6]; 1 dose 10 µM) was 3/59 and the “Positive Cytotoxic Effect (cell lines with percent growth < 0 / total)” value ([6]; 1 dose 10 µM) was 42/59. The “number of cancer cell lines the compound was active against” value ([6]; 1 dose 10 µM) was 45 cell lines, the activity at 10 µM ([6]; Homo sapiens, 48 h, read-out: Mean Growth, %) was -27.9% and the activity at 10 µM ([6]; Homo sapiens, 48 h, read-out: Range of Growth, %) was -100 to 110%. For the same compound, the IC (TGI) ([6]; Homo sapiens, 48 h, read-out: TGI MG_MID60, average over all cell lines) was 3350 nM, the GI50 ([6]; Homo sapiens, read-out: GI50 MG_MID60) was 1720 nM and the GI50 ([6]; Homo sapiens, read-out: GI50 against all human tumor cell lines) was less than 3000 nM. The CC50 ([6]; Homo sapiens, read-out: LC50 MG_MID60, average over all cell lines) was 6520 nM, the GI50 (SK-MEL-28 (Melanoma); SK-MEL-28) was 1660 nM and the IC (TGI) (SK-MEL-28 (Melanoma); SK-MEL-28, 48 h, read-out: TGI) was 3110 nM.
